Values of other authors in patent US20250361307A1, “COMBINATION THERAPIES FOR TREATING HYPERPROLIFERATIVE DISORDERS” (X4 Pharmaceuticals, Inc., priority 2022, published 2025).

Assays:
BCL-2 = BCL-2 (Homo sapiens, UniProt P10415); settings: cited from earlier work
BCL-XL = BCL-XL (Homo sapiens, UniProt Q07817); settings: cited from earlier work
BCL-w = biological target: T1, BCL-w (Homo sapiens, UniProt Q92843); settings: cited from earlier work
T1 sequence (Q92843 1-193): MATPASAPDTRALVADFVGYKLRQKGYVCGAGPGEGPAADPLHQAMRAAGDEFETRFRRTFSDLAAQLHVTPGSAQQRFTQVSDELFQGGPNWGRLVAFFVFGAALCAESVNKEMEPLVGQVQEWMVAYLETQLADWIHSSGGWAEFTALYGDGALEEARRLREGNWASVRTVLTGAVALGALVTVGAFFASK

A1 = biological target: T2, A1 (Homo sapiens, UniProt Q16548); settings: cited from earlier work
T2 sequence (Q16548 1-175): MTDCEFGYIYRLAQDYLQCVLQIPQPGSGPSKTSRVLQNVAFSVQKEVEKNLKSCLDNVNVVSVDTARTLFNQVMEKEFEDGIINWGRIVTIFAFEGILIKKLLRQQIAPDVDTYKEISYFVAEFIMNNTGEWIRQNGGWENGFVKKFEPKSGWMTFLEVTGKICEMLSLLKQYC

MCL-1 = MCL-1 (Homo sapiens, UniProt Q07820); settings: cited from earlier work
[1] = tested on: small-cell lung cancer and hematologic cell lines; settings: in vivo; cited from earlier work
platelets = settings: cited from earlier work

Chain of BCL-2 (P10415 whole entry): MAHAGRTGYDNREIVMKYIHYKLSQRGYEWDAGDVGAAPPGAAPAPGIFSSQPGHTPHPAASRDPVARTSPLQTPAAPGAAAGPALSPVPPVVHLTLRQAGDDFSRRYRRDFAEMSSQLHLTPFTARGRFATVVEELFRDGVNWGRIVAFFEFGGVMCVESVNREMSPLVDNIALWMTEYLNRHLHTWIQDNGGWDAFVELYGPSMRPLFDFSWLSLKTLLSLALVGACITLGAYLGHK
Chain of BCL-XL (Q07817 whole entry): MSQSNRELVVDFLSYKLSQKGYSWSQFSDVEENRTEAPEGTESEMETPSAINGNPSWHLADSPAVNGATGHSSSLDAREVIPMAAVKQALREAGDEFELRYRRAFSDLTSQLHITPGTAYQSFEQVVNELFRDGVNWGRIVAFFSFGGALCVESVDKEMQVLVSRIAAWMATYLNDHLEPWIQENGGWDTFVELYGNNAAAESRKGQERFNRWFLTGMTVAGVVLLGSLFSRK
Chain of MCL-1 (Q07820 whole entry): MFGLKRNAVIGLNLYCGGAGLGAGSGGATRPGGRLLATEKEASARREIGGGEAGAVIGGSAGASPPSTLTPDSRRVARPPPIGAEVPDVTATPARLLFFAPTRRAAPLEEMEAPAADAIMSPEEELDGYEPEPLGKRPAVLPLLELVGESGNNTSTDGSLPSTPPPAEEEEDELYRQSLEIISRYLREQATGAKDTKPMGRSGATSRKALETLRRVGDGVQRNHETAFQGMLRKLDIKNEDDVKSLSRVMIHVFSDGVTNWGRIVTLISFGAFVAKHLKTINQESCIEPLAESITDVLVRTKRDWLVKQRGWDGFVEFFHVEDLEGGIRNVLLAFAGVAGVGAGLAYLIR

Compound | interaction with BCL-2 (BCL-2) | interaction with BCL-XL (BCL-XL) | interaction with BCL-w (BCL-w) | activity against A1 (A1) | activity against MCL-1 (MCL-1) | tumor responses [1] | platelet numbers (platelets)
CC1(C)CCC(c2ccc(Cl)cc2)=C(CN2CCN(c3ccc(C(=O)NS(=O)(=O)c4ccc(N[C@H](CCN5CCOCC5)CSc5ccccc5)c(S(=O)(=O)C(F)(F)F)c4)cc3)CC2)C1 [navitoclax] | high affinity | high affinity | high affinity | no activity | no activity | rapid and complete tumor responses | –
CC1(C)CCC(CN2CCN(c3ccc(C(=O)NS(=O)(=O)c4ccc(NCC5CCOCC5)c([N+](=O)[O-])c4)c(Oc4cnc5[nH]ccc5c4)c3)CC2)=C(c2ccc(Cl)cc2)C1 [venetoclax] | – | – | – | – | – | – | little effect
